This is an account of results in patent US5696245A, “Fructofuranosyl substituted polymers and methods for their production” (The University of Montana, priority 1995, dated 1997).

The nature of series [1]: Solubility of Estriol in water in presence of CD's and Fru-CD's. The series is classed as physicochemical. On the procedure:
(§1) The solubilities of 2 and 4 were determined as were their respective abilities to solubilize a slightly soluble drug.
Solubility of Estriol in Water in
Presence of CD's and Fru-CD's at 20° C.
Solubility in 1.5 × 10^-2 M CD

Series [2] can be described thus: Solubility in water of CD's and Fru-CD's. The conditions noted are these: 21° C. ± 1° C. Type of series: physicochemical. On the procedure: as §1
^a determined at 21° C. ± 1° C.

For series [3], the system named is invertase. The experiment in a line: Hydrolysis by invertase. The series is classed as biochemical. To be noted: conditions of complete sucrose hydrolysis in 30 minutes. An excerpt: (§2) No inhibition was manifested by the parent CD's. […] Furthermore, provided that the Fru-α-CD is capable of transport to regions of plants or of plant cells, where invertase action occurs, then it is a potent plant growth regulator.

Series [4] relates to invertase. The experiment in a line: Inhibition of invertase (hydrolysis of sucrose). The series is classed as biochemical. To be noted: for inhibition of invertase: 1:1 mole ratio with sucrose.
Source text: Reference is now made to the drawings accompanying the application wherein the sole Figure is a graph showing the action of invertase on sucrose in the presence of cyclodextrins and fructosyl cyclodextrins.
as §2

Molecules are shown by their SMILES. In brackets after ≈: the same amount, converted by molar mass.

What is called solubility is the concentration that dissolves in the medium under given conditions.

Consider `C[C@]12CC[C@@H]3c4ccc(O)cc4CC[C@H]3[C@@H]1C[C@@H](O)[C@@H]2O` [Estriol, reference compound], for which the solubility in series [1] (water without CD, 20° C.) is 0.023 mg/mL.

Compound `OC[C@H]1O[C@@](CO)(OC[C@H]2O[C@@H]3O[C@H]4[C@H](O)[C@@H](O)[C@@H](O[C@H]5[C@H](O)[C@@H](O)[C@@H](O[C@H]6[C@H](O)[C@@H](O)[C@@H](O[C@H]7[C@H](O)[C@@H](O)[C@@H](O[C@H]8[C@H](O)[C@@H](O)[C@@H](O[C@H]9[C@H](O)[C@@H](O)[C@@H](O[C@H]2[C@H](O)[C@H]3O)O[C@@H]9CO)O[C@@H]8CO)O[C@@H]7CO)O[C@@H]6CO)O[C@@H]5CO)O[C@@H]4CO)[C@@H](O)[C@@H]1O` [compound 2, 6-O-(β-D-fructofuranosyl) cycloheptaamylose] registered a Solubility in water in series [2] of 1136 mg/mL (≈ 876 mM). Besides, the “ability to solubilize sparingly soluble compounds by inclusion, vs parent cyclodextrins” value in series [1] (general description) is given as “increased ability to solubilize”. In addition, the hydrolysis by invertase entry in the series with invertase [3] is on record as “unaffected by invertase”. Also, the inhibition of invertase entry in the series with invertase [4] was “demonstrated inhibition of invertase”.

The compound `OC[C@H]1O[C@@H]2O[C@H]3[C@H](O)[C@@H](O)[C@@H](O[C@H]4[C@H](O)[C@@H](O)[C@@H](O[C@H]5[C@H](O)[C@@H](O)[C@@H](O[C@H]6[C@H](O)[C@@H](O)[C@@H](O[C@H]7[C@H](O)[C@@H](O)[C@@H](O[C@H]1[C@H](O)[C@H]2O)O[C@@H]7CO)O[C@@H]6CO)O[C@@H]5CO)O[C@@H]4CO)O[C@@H]3CO` [α-CD, cyclohexaamylose, reference compound] yielded a Solubility in water in series [2] of 126 mg/mL (≈ 130 mM).

`OC[C@H]1O[C@@](CO)(OC[C@H]2O[C@@H]3O[C@H]4[C@H](O)[C@@H](O)[C@@H](O[C@H]5[C@H](O)[C@@H](O)[C@@H](O[C@H]6[C@H](O)[C@@H](O)[C@@H](O[C@H]7[C@H](O)[C@@H](O)[C@@H](O[C@H]8[C@H](O)[C@@H](O)[C@@H](O[C@H]2[C@H](O)[C@H]3O)O[C@@H]8CO)O[C@@H]7CO)O[C@@H]6CO)O[C@@H]5CO)O[C@@H]4CO)[C@@H](O)[C@@H]1O` [compound 4, 6-O-(β-D-fructofuranosyl) cyclohexaamylose] gave a Solubility in water in series [2] of 1054 mg/mL (≈ 929 mM). Also, in the series on invertase [3], the hydrolysis by invertase entry is given as “unaffected by invertase”. For the same compound, the inhibition of invertase entry in the series with invertase [4] is recorded as “to a much greater extent, 4 demonstrated inhibition of invertase”. Moreover, in the series with invertase [4] (hydrolysis of sucrose by invertase, detailed kinetic study still required), the “type of invertase inhibition” value is given as “appears to be a non-reversible inhibitor”.

The compound `OC[C@H]1O[C@@H]2O[C@H]3[C@H](O)[C@@H](O)[C@@H](O[C@H]4[C@H](O)[C@@H](O)[C@@H](O[C@H]5[C@H](O)[C@@H](O)[C@@H](O[C@H]6[C@H](O)[C@@H](O)[C@@H](O[C@H]7[C@H](O)[C@@H](O)[C@@H](O[C@H]8[C@H](O)[C@@H](O)[C@@H](O[C@H]1[C@H](O)[C@H]2O)O[C@@H]8CO)O[C@@H]7CO)O[C@@H]6CO)O[C@@H]5CO)O[C@@H]4CO)O[C@@H]3CO` [β-CD, cycloheptaamylose, reference compound] displayed a Solubility in water in series [2] of 20 mg/mL (≈ 17.6 mM).

On to `OC[C@H]1O[C@@](CO)(O[C@H]2O[C@H](CO)[C@@H](O)[C@H](O)[C@H]2O)[C@@H](O)[C@@H]1O` [sucrose, reference compound], for which the hydrolysis by invertase result in the series with invertase [3] is reported as “complete hydrolysis”.
